Experiments:
[1] = Corrosion Test 2 (dynamic wheel test; 3 wt% brine; CO2 + H2S); conditions: 24 h, 70° C.
Protocol: (§1) For each compound three mild steel coupons (approximately 100 mm×12 mm×1.5 mm) were tested at each concentration. Each was contacted in a 250 ml bottle with 200 ml of a test fluid either saturated with a carbon dioxide at 20° C. or containing 100 ppm hydrogen sulphide or having both CO2 and H2 S present in those amounts. The test fluid was treated with a 30% aqueous solution of the compound under test at 2, 10, 50 and 250 ppm except where indicated to the contrary. The coupon was subjected to a dynamic wheel test in which the bottle was mounted radially on the periphery of 650 mm diameter wheel which was rotated at about 40 rpm for 24 hours at 70° C. The weight loss was obtained, and also measured in a control experiment where no inhibitor was present. From this the % protection was calculated as % reduction in weight loss.
Test Fluid: 200 ml 3 wt% brine
(§2) Corrosives: Saturated CO2 +100 ppm H2 S

[2] = Corrosion inhibition tests, constant concentration conditions (overall)
Protocol: as §1

[3] = Solubility Test (35 wt% solution in isopropylalcohol shaken with water, brine or heptane); assay type: physicochemical; conditions: for SOLUBILITY IN: Heptane: 0.3 ml of 35 wt% IPA solution in 10 ml heptane, 30 minutes and 24 hours; for SOLUBILITY IN: Water: 0.3 ml of 35 wt% IPA solution in 10 ml water, observed after 30 minutes and 24 hours
Protocol: The active material under test was made up into a 35 wt% solution in isopropylalcohol (IPA). 0.3 ml of this solution was shaken with 10 ml of each of the liquids in which solubility is to be tested: water, 5 wt% NaCl solution (brine) and heptane. The mixture was observed after 30 minutes and 24 hours.

[4] = Emulsion Test (3 wt% brine / heptane); assay type: physicochemical; design: Emulsion thickness after 30 mins: unit not given here; conditions: for Time to break emulsion: 1 ml of 35 wt% IPA solution, 50 ml 3 wt% brine, 50 ml heptane; for Appearance after 30 mins, hydrocarbon: hydrocarbon layer; for Appearance after 30 mins, water: water layer
Protocol: 1 ml of the solutions used for Test A was shaken with 50 ml of 3 wt% brine and 50 ml of heptane for 1 minute in a 150 ml bottle. The emulsion was observed, and the time noted for the emulsion to break and form a clean interface with clear liquid layers. If at 30 minutes this had not occurred, the appearance was recorded together with the thickness of any persisting emulsion.

[5] = Corrosion Test 1 (dynamic wheel test; 3 wt% brine/Mentor 28; CO2 + H2S); conditions: 24 h, 70° C., 30% solution
Protocol: as §1
Test fluid: 100 ml 3 wt% brine/100 ml Mentor 28 (Mentor®28 is a depolarised kerosene available from Exxon Chemical Company)
as §2

[6] = Corrosion Test 4 (dynamic wheel test; 3 wt% brine + Mentor 28; H2S); conditions: 24 h, 70° C.
Protocol: as §1
(§3) Test fluid: 100 ml 3 wt% brine+100 ml Mentor 28
Corrosives: 100 ppm H2 S (prior nitrogen purge)

[7] = Film persistency corrosion test; conditions: CO2 + H2S, 24 h, 70° C.
Protocol: […] A test fluid made up of equal proportions of 3 wt% brine and Mentor 28 was used, saturated with CO2 and containing 100 ppm H2 S as corrosives. Coupons were used as described for the previous corrosion test. A coupon was first immersed in test fluid containing corrosives and the inhibitor under test for 1 hour, then rinsed for 1 hour in a similar test fluid containing no inhibitor and finally transferred to a further test fluid again containing no inhibitor in which the dynamic wheel test was carried out at 70° C. for 24 hours.

[8] = Corrosion Test 3 (dynamic wheel test; 3 wt% brine + Mentor 28; CO2 only); conditions: 24 h, 70° C.
Protocol: as §1, §3
Corrosives: Saturated CO2 only

[9] = 50 ml 3 wt% brine/50 ml heptane

Row | SMILES | % Protection ([1]; 2 ppm) [%] | % Protection ([1]; 10 ppm) [%] | % Protection ([1]; 50 ppm) [%] | % Protection ([1]; 250 ppm) [%] | performance of 2:1 derivatives compared with 1:1 derivatives [2] | SOLUBILITY IN: Heptane [3] | SOLUBILITY IN: Water [3] | Time to break emulsion [4] [min] | Appearance after 30 mins, hydrocarbon [4, 9] | Appearance after 30 mins, water [4, 9] | % Protection ([5]; 2 ppm) [%] | % Protection ([5]; 10 ppm) [%] | % Protection ([5]; 50 ppm) [%] | % Protection ([5]; 250 ppm) [%] | % Protection ([6]; 2 ppm) [%] | % Protection ([6]; 10 ppm) [%] | % Protection ([6]; 250 ppm) [%] | also measured
1 | c1ccc(CN(CCc2ccccn2)CCc2ccccn2)cc1 [Example 20] | 51 | 63 | 75 | 91 | tended to perform less well than 1:1 derivatives | S | S | 1 | clear | clear | 24 | 25 | 63 | 81 | – | – | – | –
2 | CCCCCCCCCCCCN(CCc1ccccn1)CCc1ccccn1 [Example 19] | – | – | – | – | tended to perform less well than 1:1 derivatives | S | S | > 30 | hazy | hazy | 16 | 71 | 77 | 86 | 2 | 57 | 57 | –
3 | CCCCCCN(CCc1ccncc1)CCc1ccncc1 [Example 38] | – | – | – | – | tended to perform less well than 1:1 derivatives | – | – | 1 | clear | clear | 2 | 64 | 79 | 80 | – | – | – | –
4 | CCCCCCCCCCCCN(CCc1ccncc1)CCc1ccncc1 [Example 39] | 41 | 65 | 78 | 87 | tended to perform less well than 1:1 derivatives | – | – | > 30 | hazy | hazy | 26 | 70 | 89 | 89 | 3 | 26 | 85 | % Protection ([7]; 500 ppm): 20%; % Protection ([7]; 1000 ppm): 24%; % Protection ([7]; 5000 ppm): 33%; % Protection ([6]; 50 ppm): 64%; % Protection ([8]; 2 ppm): 9%; % Protection ([8]; 10 ppm): 5%; % Protection ([8]; 250 ppm): 15%; Emulsion thickness after 30 mins [4, 9]: 0.1

— US4515708A, “Corrosion inhibitors” (Exxon Research & Engineering Co., priority 1982, dated 1985)
